# In US9566363B2, “Microbicidal composite material” (priority 2013, dated 2017):
# Where two headings read alike, the source gives them in different places.
# Assays:
# Type in all cases: cell-based
# C. albicans (ATCC 90028) = assay: Zone of inhibition study (disc on agar plate); conditions: radius around 12 mm disc, 24 hours at 37±1° C., triplicates, Flucanazole 25 μg/Disc
# Method: (§1) The microbicidal composite material was tested in triplicates against E. coli (ATCC25922), S. aureus (ATCC 25923), P. aeruginosa (ATCC 9027) and C. albicans (ATCC 90028). The test material was cut as a 12 mm diameter disc and placed on 90 mm agar plates spread with 100 μl of approximately 10^8 CFU/ml of each bacterial strain and incubated at 37±1° C. for 24 hours. For a negative control, a filter paper disc containing no antibiotic was used. The zone of inhibition (Radius in mm) around the discs was measured using a transparent ruler. The results of this test are tabulated as under Table-5.
# E. coli (ATCC25922) = assay: Zone of inhibition study (disc on agar plate); conditions: radius around 12 mm disc, 24 hours at 37±1° C., triplicates, Ciprofloxacin 1 μg/Disc
# Method: as §1
# S. aureus (ATCC 25923) [1] = assay: Zone of inhibition study (disc on agar plate); conditions: radius around 12 mm disc, 24 hours at 37±1° C., triplicates
# Method: as §1
# [2] = system: P. aeruginosa (ATCC 9027); assay: Zone of inhibition study (disc on agar plate); conditions: radius around 12 mm disc, 24 hours at 37±1° C., triplicates
# Method: as §1
# S. aureus [3] = assay: Bio film disruption assay (crystal violet, OD 570 nm); conditions: Staphylococcus aureus, overnight grown culture, 24 hours, 15 mm disc, Ciprofloxacin 1 ug/ml, read-out: % Inhibition, Percentage Effect in Bio film disruption assay
# Method: (§2) 15 millimeters (mm) Discs of the microbicidal composite material were cut and placed into 24 well plates containing approximately 10^8 CFU/ml in Tryptic Soy Broth (TSB) of P. aeruginosa and S. aureus respectively and incubated at 37±1° C. for the Bio film Prevention assay. Similarly, 15 millimeter (mm) Discs of the microbicidal composite material were cut and placed into 24 well plates containing overnight grown culture of P. aeruginosa and S. aureus respectively in TSB and further incubated for 24 hours at 37±1° C. for the disruption assay.
# (§3) Further, plain filter paper discs were placed in culture control (C) wells with approximately 10^8 CFU/ml of the above bacteria in Tryptic Soy Broth (TSB) for both the Prevention and Disruption assay. After incubation, the contents were removed and washed four times with Phosphate Buffer saline (pH 7.2). A 500 μl of 0.1% crystal violet stain was added to each well and incubated for 20 minutes at room temperature, washed, and dried. Subsequently, 500 μl of ethanol supplemented with 2% acetic acid was added to each well for 30 min. The Optical Density (OD) of stained adherent Bio film was obtained by using a Tecan plate reader at 570 nm wavelength. Percentage inhibitions in the respective assays were calculated in comparison to the control.
# P. aeruginosa [4] = assay: as above; conditions: Pseudomonas aeruginosa, overnight grown culture, 24 hours, 15 mm disc, Ciprofloxacin 1 ug/ml, read-out: % Inhibition, Percentage Effect in Bio film disruption assay
# Method: as §2, §3
# S. aureus [5] = assay: Bio film prevention assay (crystal violet, OD 570 nm); conditions: Staphylococcus aureus, 15 mm disc, Ciprofloxacin 1 ug/ml, versus control, read-out: % Inhibition, Percentage Effect in Bio film prevention assay
# Method: as §2, §3
# P. aeruginosa [6] = assay: as above; conditions: Pseudomonas aeruginosa, 15 mm disc, Ciprofloxacin 1 ug/ml, versus control, read-out: % Inhibition, Percentage Effect in Bio film prevention assay
# Method: as §2, §3
# S. aureus [7] = assay: Residual microbes on ZOI disc after transfer to Nutrient broth
# Method: (§4) After 24 hours, the discs were transferred to Nutrient broth which was then incubated at 37±1° C. for another 24 hours. The broth contents were placed on Nutrient agar plates to measure the residual percentage of microbes present on the disc as a result of remaining on a lawn of bacteria overnight. Percentage survival was calculated as [number of CFU/ml in test substance/number of CFU/ml in control substance]. The killing percentage was calculated as 100-residual percentage. The results are tabulates as under Table-6.
# P. aeruginosa [8] = assay: as above
# Method: as §4
# C. albicans = assay: as above
# Method: as §4
# E. coli = assay: as above
# Method: as §4
# S. aureus (ATCC 25923) [9] = assay: Rate of microbicidal effect upon contact (CFU enumeration over time); conditions: Staphylococcus aureus, 15 mm disc in approximately 10^8 CFU/ml, ciprofloxacin 1 μg/disc, read-out: killing percentage (inhibition of growth as percentage)
# Method: (§5) Briefly, 15 millimeter (mm) discs of the microbicidal composite material were cut and placed into 24 well plates containing approximately 10^8 CFU/ml in Nutrient broth of S. aureus (ATCC 25923) & P. aeruginosa (ATCC 9027) respectively and incubated at 37±1° C. At intervals of 1, 5, 15, 30 and 60 minutes, broth samples were drawn and plated on nutrient agar plates and incubated for 24 hours at 37±1° C. for CFU enumeration. Two reference standards (ref-1, and ref-2) [Ref-1: Reference standard-I, includes a test material which is a cotton gauze material bonded with non siloxane based QAS and Ref-2: Reference standard-II includes a test material with active ingredient as silver Test Item refers to the ‘Microbicidal Composite Material’] and a disc containing 1 μg/disc ciprofloxacin. The results are tabulated in table 8 and table 9 as percentage recovery over time. Percentage survival was calculated as number of CFU/ml in test substance/number of CFU/ml in control substance. The killing percentage was calculated as 100-residual percentage.
# (§6) FIG. 4 and FIG. 5 show the inhibition of growth as percentage in the Y-axis compared to the untreated control group.
# [10] = system: P. aeruginosa (ATCC 9027); assay: as above; conditions: Pseudomonas aeruginosa, 15 mm disc in approximately 10^8 CFU/ml, ciprofloxacin 1 μg/disc, read-out: killing percentage (inhibition of growth as percentage)
# Method: as §5, §6
# [11] = disc from ZOI assay in Nutrient broth for another 24 hours, CFU/ml versus control
compound,measurement,setting,value
OC(Cn1cncn1)(Cn1cncn1)c1ccc(F)cc1F [Flucanazole],ZOI (in mm) Mean,C. albicans (ATCC 90028),3.60 mm
O=C(O)c1cn(C2CC2)c2cc(N3CCNCC3)c(F)cc2c1=O [Ciprofloxacin],ZOI (in mm) Mean,E. coli (ATCC25922),11.00 mm
same,ZOI (in mm) Mean,S. aureus (ATCC 25923) [1],11.55 mm
same,ZOI (in mm) Mean,[2],9.50 mm
same,inhibition at 1 µg/mL,S. aureus [3],88.2%
same,inhibition at 1 µg/mL,P. aeruginosa [4],91.4%
same,inhibition at 1 µg/mL,S. aureus [5],93.1%
same,inhibition at 1 µg/mL,P. aeruginosa [6],89.8%
same,Killing %,S. aureus [7]; 100-residual percentage,99.9921%
same,Residual %,S. aureus [7]; [11],0.008%
same,Killing %,P. aeruginosa [8]; 100-residual percentage,99.9994%
same,Residual %,P. aeruginosa [8]; [11],0.001%
same,Killing %,C. albicans; 100-residual percentage,99.9902%
same,Residual %,C. albicans; [11],0.010%
same,Killing %,E. coli; 100-residual percentage,99.9997%
same,Residual %,E. coli; [11],0.000%
same,inhibition at 1 µg/disc,"S. aureus (ATCC 25923) [9]; ATCC25923, 1 min, 1 minute",0%
same,inhibition at 1 µg/disc,"S. aureus (ATCC 25923) [9]; ATCC25923, 5 min, 5 minutes",32%
same,inhibition at 1 µg/disc,"S. aureus (ATCC 25923) [9]; ATCC25923, 0.25 h, 15 minutes",86.2%
same,inhibition at 1 µg/disc,"S. aureus (ATCC 25923) [9]; ATCC25923, 0.5 h, 30 minutes",79.1%
same,inhibition at 1 µg/disc,"S. aureus (ATCC 25923) [9]; ATCC25923, 1 h, 60 minutes",98.8%
same,inhibition at 1 µg/disc,"[10]; ATCC9027, 1 min, 1 minute",0%
same,inhibition at 1 µg/disc,"[10]; ATCC9027, 5 min, 5 minutes",32.4%
same,inhibition at 1 µg/disc,"[10]; ATCC9027, 0.25 h, 15 minutes",87.4%
same,inhibition at 1 µg/disc,"[10]; ATCC9027, 0.5 h, 30 minutes",98%
same,inhibition at 1 µg/disc,"[10]; ATCC9027, 1 h, 60 minutes",99.9%
